This is an account of results in US11028127B2, “Peptides capable of reactivating p53 mutants” (Yeda Research and Development Co. Ltd., priority 2013, dated 2021).

The test system of series [1] is SKBR3 cells expressing endogenous R175H p53. The note with it: SKBR3 ShCon cells, 5 ug/ml, 18 hours. As for the experimental part:
FIG. 16 is a bar graph illustrating the effect of the indicated peptides on activation of Mut-p53 by measuring transactivation of p53 target genes as determined by qRT-PCR. SKBR3 ShCon cells and SKBR3 Shp53 cells knocked down for p53 expression were used. The cells were plated in 12-well dishes and the indicated peptides were added directly to the medium at a concentration of 5 ug/ml. 18 hours later cells were harvested, followed by qRT-PCR analysis. Expression level of p21, PUMA and Mdm2 was evaluated. FIG. 16 illustrates the relative fold induction of transcription of the tested genes in the various samples relative to their transcription level in non-treated cells. GAPDH mRNA was measured in parallel as a control.
RNA was obtained using Macherey-Nagel NucleoSpin RNA II Kit on cells pellet according to the manufacturer's protocol. Aliquots of 0.4-1 μg were reverse transcribed using Bio-RT 2000 (Bio-Lab) and random hexamer primers. Quantitative real-time polymerase chain reaction (QRT-PCR) was performed on an ABI 7300 instrument (Applied Biosystems) using PerfeCTa SYBR Green FastMix ROX (Quanta). RT-PCR primers used are presented in Table 1 (primers sequences are presented 5′ to 3′).
The tested peptides were further tested for their effect on p53 target gene expression in SKBR3 cells expressing endogenous R175H p53. […] In essence, these cells were plated in 12-well dishes; the indicated peptides were added directly to the medium at a concentration of 5 ug/ml. 18 hours later cells were harvested, followed by qRT-PCR analysis. Expression level of p21, PUMA and Mdm2 was evaluated. Expression of those genes in non-treated cells is considered background and all results were normalized to it, as well as to GAPDH.

A further series has as its target p53 DBD (Homo sapiens, UniProt P04637). The note with it: cited from earlier work.
Series [2] is described as follows: Crystal violet viability assay. Format: cell-based. The following applies: human, shp53 (Mut-p53 knockdown) subline. From the text:
FIGS. 15A and 15B are bar graphs illustrating the effect of the various indicated peptides on the viability of breast cancer cells expressing different Mut-p53 isoforms, as determined by crystal violet assay. FIG. 15A: MDA-MB-231 cells expressing Mut-p53 with a mutation at position 280 of the DBD. FIG. 15B: SKBR3 cells expressing Mut-p53 with mutation at position 175 within the DBD. The bar graphs in FIGS. 15A and 15B show for each tested peptide the optical density reads at 595 nm, reflecting the number of cells in the plate after treatment, normalized to the non-treated (NT) samples.
Cells were cultured in 96 wells plates with 2500-4000 cells/well in 0.1 ml and incubated overnight at 37° C. in order to adhere to the plate. Serial dilutions of different peptides (0.5 μg/ml) were added in 0.1 ml aliquots and the plates incubated for additional 48 h at 37° C. Then medium was removed and cell lysis was determined by staining the cells with crystal violet (0.5%) in methanol/water (1:4, v/v), 50 μl each well, for 10 min, followed by 3 washes with PBS. Afterwards, 10% acetic acid (50 μl) was added to each well and shaken for 10 min. Then, automatic plate reading was performed at 595 nm.
Experiments using different cancer cell lines expressing endogenously different p53 mutant isoforms were performed. FIGS. 15A and 15B illustrate two representative experiments performed on MDA-MB-231 (FIG. 15A) and SKBR3 (FIG. 15B) breast cancer cells expressing Mut-p53 with mutations at positions 280 or 175, respectively, within the DNA Binding Domain (DBD). To examine the peptides' specificity for Mut-p53, the control used was such cells with a knockdown of Mut-p53 (shp53).

The subject of series [3] is H1299 cells stably transfected with Mut-p53 (ts) A135V. The series is described as follows: qRT-PCR of p53 target genes (p21, PUMA, Mdm2). Format: cell-based. The following applies: 5 ug/ml, 18 hours, 37° C., relative to non-treated cells; positive control (32° C.) 9-11 fold. As for the experimental part:
H1299 cells are p53 null and are widely used for p53 research. H1299 cells stably transfected with Mut-p53 (ts) A135V were used. […] 18 hours later cells were harvested, followed by extraction of RNA, cDNA synthesis and real time PCR analysis. The expression level of 3 representative p53 target genes, p21, PUMA and Mdm2, was examined.
For the in vivo functional screening, several experimental systems were used. One system is based on H1299 cells, which are p53 null and are widely used for p53 research. H1299 cells stably transfected with Mut-p53 (ts) A135V were used. This form of p53 is a temperature sensitive mutant, which has a mutant conformation at 37° C. and a WT conformation at 32° C. […] 18 hours later cells were harvested, followed by extraction of RNA, cDNA synthesis and real time PCR analysis. The expression level of 3 representative p53 target genes was examined; p21, PUMA and Mdm2. Expression of genes in H1299-ts at 37° C. is considered as background level and all results are normalized to it, and also to the GAPDH housekeeping gene. Expression of genes in H1299-ts at 32° C. represents WT p53 conformation and therefore serves as a positive control.
Several tested peptides indeed caused a significant increase in the expression of p21, PUMA and Mdm2. This was the case for pCAP-130, pCAP-135, pCAP-142, pCAP-144 and pCAP-148. […]

In the next series the target is T1, R249S p53 (Homo sapiens, UniProt P04637, R249S).
T1 construct: expressed in transfected cells; host or cells: H1299 p53-/- cells, transient transfection
Briefly: TK-RGC-luc luciferase reporter assay in H1299 p53−/− cells. Format: cell-based. The following applies: peptides added 24 hours after transfection, read at 48 hours. As for the experimental part: (§1) FIG. 12 is a bar graph illustrating the relative luciferase activity (cLuc/gLuc) as measured in the various tested samples. Transient transfection of H1299 p53^−/− cells was performed with plasmids expressing WT p53, R175H p53, R249S p53 or empty vector as control, together with TK-RGC-luc, where luciferase expression is under control of a tandem array of multiple p53-responsive elements. 24 hours after transfection, cells were treated with the test peptides. 48 hours after transfection, a sample of the culture medium was taken for bioluminescence measurements.
(§2) The oligonucleotide (RGC-W) that has the sequence 5′-[…]-3′ (SEQ ID NO:362), and the oligonucleotide mutant RGC oligonucleotide (RGC-M) that has the sequence 5′-[…]-3′ (SEQ ID NO:363), are both derived from Kern et al. (Kern, S. E., et al., Identification of p53 as a sequence-specific DNA-binding protein. Science, 1991. 252(5013): p. 1708-11), and serve as a consensus binding sites for WT p53.
(§3) These motifs were cloned into the KPN and Eco53IK sites in pCLuc Mini-TK 2 Vector (NEB, Cat No. N0324S ). The Luciferase construct was used to assess transcriptional activation of p53 in test cells.
(§4) H1299 p53-null cells were cultured overnight and then transfected with the luciferase constructs using MaxFect Transfection Agent (Mediatech) according to the manufacturer's protocol. Prior to the transfection, cell medium was exchanged to OPTI-MEM.
(§5) The cells were treated with different peptides 24 hours after transfection. After additional 24 hours, growth medium was collected to 96 black plates: 40 μl for Cluc assay, and 20 μl for Gluc assay. Assay was performed using Turner BioSystems Modulus Microplate. Value was calculated by Cluc/gluc/NT (non-treated cells).
(§6) As additional screening strategy used to identify reactivating peptides was performed in vivo and is based on a reporter gene assay. It measures p53 transcriptional activity by quantifying the activity of a reporter gene, placed under the control of a promoter containing 17 repeats of a p53 consensus binding site (RGC). The luciferase assay is performed on living cells and therefore provides an indication on the effect of test peptides on Mut-p53 function in the context of intact cells.
(§7) For the in vivo luciferase based screening, H1299 cells were used. Transient transfection of these p53^−/− cells was performed with vectors expressing WT p53, R175H p53, R249S p53 or empty vector as control (Suad, O., et al., Structural basis of restoring sequence-specific DNA binding and transactivation to mutant p53 by suppressor mutations. J. Mol. Biol., 2009. 385(1): p. 249-65). Cells were also co-transfected with TK-RGC-luc (CAT. No. NEB, N0324S). 24 hours after transfection, cells were treated with the test peptides. […]

The next series addresses T2, R175H p53 (Homo sapiens, UniProt P04637, R175H).
T2 construct: a hot spot full length mutant p53 Mut-p53 R175H (R175H p53); expressed in transfected cells; host or cells: H1299 p53-/- cells, transient transfection
Described as above. Format: cell-based. The note with it: peptides added 24 hours after transfection, read at 48 hours. On the procedure: as §1, §2, §3, §4, §5, §6, §7

In another series the target is T3, Mut-p53 (R175H p53) (Homo sapiens, UniProt P04637, R175H).
T3 construct: a hot spot full length mutant p53 Mut-p53 R175H (R175H p53); expressed in transfected cells; host or cells: H1299 (p53-null) cells stably overexpressing R175H p53; cell extract
Briefly: p53/DNA binding ELISA kit (R&D), binding to p53-RE DNA. Format: biochemical. The note with it: H1299-R175H p53 cell extracts, vs background (NT). From the text: A commercial p53/DNA binding kit (R&D) was used, according to manufacturer instructions. Briefly, 96 well plates were coated with anti-p53 antibody overnight. Cell extracts containing p53 were reacted with an oligonucleotide that contains a p53 consensus binding site, labeled with biotin, in the presence or absence (NT) of test peptides. WT p53 is expected to bind this DNA binding site as well as to the antibody coating the test wells of the plate. Excess p53 and oligos are washed away and streptavidin-HRP is used to quantify the amount of oligos in the well, which is proportional to the DNA bound by p53. TMB assay was performed to determine HRP levels (450 nm). The results are presented as relative absorbance (at 450 nm) (Y-Axis) of each tested sample. MCF7 and the H1299-Mut-p53 (ts) A135V cells serve as positive controls for WT p53.
For these experiments, a commercial p53/DNA binding kit of “R&D” (Cat-DYC1355-5 Lot-1273366FA) was used, in accordance with manufacturer guide lines. Briefly, 96 well plates are coated with anti-p53 antibody overnight. Cell extracts containing p53 are reacted with an oligonucleotide that contains a p53 consensus binding site (provided in the kit), labeled with biotin, in the presence or absenc.
e (NT) of test peptides. WT p53 is expected to bind this DNA binding site as well as to the antibody coating the test wells of the plate. Excess p53 and oligos were washed away and streptavidin-HRP was used to quantify the amount of oligos in the well, which is proportional to the DNA bound by p53. TMB assay was performed to determine HRP (ES001-1L-K) levels (450 nm).
To measure the effect of the tested peptides on DNA binding of Mut-p53, a commercial ELISA kit, (R&D Systems DYC1355-5, Lot-1273366FA), was used as a high-throughput assay to quantify p53 activation. This kit uses a 96-well plate format. The kit was used according to manufacturer's instructions. Wells were coated with anti-p53 antibody overnight. Cell extracts containing p53 were reacted with a biotin labeled oligonucleotide containing a p53 consensus binding site (included in the kit). WT p53 is expected to bind this oligo as well as the antibody coating the wells. Excess p53 and oligo were washed away in wash buffer (0.05% Tween 20 in PBS, pH 7.2-7.4; R&D Systems, Catalog #WA126). Then, streptavidin-HRP (R&D Systems, Part 890803, provided in the kit) was added for 15-45 min to quantify the amount of oligo in the well, which is proportional to the DNA bound by p53. If the addition of a peptide to Mut-p53 extracts increases ELISA reading compared to background, this peptide is considered as functionally effective and may be selected for further analysis. […] As with the conformational screening, MCF7 and the H1299-Mut-p53 (ts) A135V cells served as positive controls for WT p53. Extracts were added to the wells coated with αp53-Ab, and after several washing steps, streptavidin-HRP was added for 1 hour, and then plates were washed again and TMB (substrate to HRP) assay was performed.

Like-named read-outs stand apart in the source and are kept apart here. Where no end group is shown, it is not given here.

SFILFIRRGRLGRRRRRRRRR [pCAP-144]: in series [1], the “transactivation of p53 target genes (p21, PUMA, Mdm2)” value (from here on “transactivation of p53 target genes”) is “among the highest transactivation levels”. For the compound `COc1ccc(/C=C/c2nc(NCCCN(C)C)c3ccccc3n2)cc1` [CP-31398], on p53 DBD, the “binding to the p53 DBD by NMR” value is “failed to detect any binding”. As to IRGRIIRRRRRRRRRR [pCAP-155], the “transactivation of p53 target genes” value in series [1] was “among the highest transactivation levels”. Further, the cytotoxicity at 48 h was in the range of 30 to 40% in series [2] (MDA-MB-231 shp53 (Mut-p53 knockdown) breast cancer cells, read-out: reduction in viability, MDA-MB-231 shp53 cells) and 30 to 40% in series [2] (SKBR3 shp53 (Mut-p53 knockdown) breast cancer cells, read-out: reduction in viability, SKBR3 shp53 cells). With “GGGGGGGGGRRRRRRR [pCAP-76, negative control peptide]”, the “induction of transcription of p53 target genes p21, PUMA and Mdm2” value in series [3] is recorded as “did not cause induction of p53 targets”. As to WNHHHSTPHPRRRRRRRRRR [pCAP-148], the “transactivation of p53 target genes” value in series [1] is given as “among the highest transactivation levels”. Regarding TRILCIVRKKRRQRRRRGDR [pCAP-75], in the series with R249S p53, the “transcription from TK-RGC-luc in the presence of R249S p53” value is recorded as “induce transcription from TK-RGC-luc”. Also, the “transcription from TK-RGC-luc in the presence of R175H p53” value with R175H p53 is “induce transcription from TK-RGC-luc”. Further, in the series with Mut-p53 (R175H p53), the “binding of H1299-R175H p53 extracts to p53-RE DNA” value is “elevate the binding of H1299-R175H p53 extracts to p53-RE DNA”.
